The NIST ThermoML archive (doi:10.1021/je900969u)
Numbers after ± are expanded uncertainties.

Legend:
[1] = 101 kPa, Liquid
[2] = xn = mol fraction of the nth substance listed; conditions: 101 kPa, Liquid

CCCCCCC [heptane]
[1]
Conditions	mass density [kg/m3]	viscosity [mPa·s]
298.15 K	679.72 ± 0.72	0.404 ± 0.012
303.15 K	675.46 ± 0.72	0.383 ± 0.012
313.15 K	666.84 ± 0.73	0.342 ± 0.011

CN1CCNCC1 [N-methylpiperazine] + CCCCCCC
[2]
Conditions	mass density, 298.15 K [kg/m3]	mass density, 303.15 K [kg/m3]	mass density, 313.15 K [kg/m3]	viscosity, 298.15 K [mPa·s]	viscosity, 303.15 K [mPa·s]	viscosity, 313.15 K [mPa·s]
x1 = 0.1006	695.86 ± 0.68	691.57 ± 0.69	682.9 ± 0.7	0.429 ± 0.013	0.395 ± 0.012	0.36 ± 0.011
x1 = 0.2012	713.24 ± 0.65	708.91 ± 0.65	700.2 ± 0.66	0.466 ± 0.013	0.438 ± 0.013	0.389 ± 0.012
x1 = 0.3006	731.62 ± 0.61	727.27 ± 0.61	718.49 ± 0.63	0.511 ± 0.014	0.481 ± 0.014	0.424 ± 0.012
x1 = 0.4014	751.5 ± 0.57	747.13 ± 0.57	738.3 ± 0.59	0.571 ± 0.016	0.533 ± 0.015	0.467 ± 0.013
x1 = 0.5007	772.43 ± 0.53	768.04 ± 0.53	759.18 ± 0.54	0.648 ± 0.017	0.599 ± 0.016	0.527 ± 0.015
x1 = 0.5996	794.38 ± 0.48	789.99 ± 0.49	781.1 ± 0.5	0.756 ± 0.02	0.699 ± 0.018	0.603 ± 0.016
x1 = 0.7	818.02 ± 0.44	813.61 ± 0.45	804.71 ± 0.46	0.905 ± 0.023	0.815 ± 0.021	0.691 ± 0.018
x1 = 0.7979	842.73 ± 0.39	838.32 ± 0.4	829.43 ± 0.41	1.094 ± 0.027	0.995 ± 0.025	0.826 ± 0.021
x1 = 0.9036	871.01 ± 0.34	866.62 ± 0.35	857.75 ± 0.36	1.474 ± 0.036	1.234 ± 0.03	1.024 ± 0.026
x1 = 1	899.28 ± 0.29	894.9 ± 0.3	886.07 ± 0.31	1.856 ± 0.045	1.544 ± 0.037	1.25 ± 0.031

CN1CCNCC1 [N-methylpiperazine]
[1]
Conditions	mass density [kg/m3]	viscosity [mPa·s]
298.15 K	899.28 ± 0.85	1.856 ± 0.045
303.15 K	894.9 ± 0.87	1.544 ± 0.037
313.15 K	886.07 ± 0.91	1.25 ± 0.031

CN1CCNCC1 [N-methylpiperazine] + CC1CCCCC1
[2]
Conditions	mass density, 298.15 K [kg/m3]	mass density, 303.15 K [kg/m3]	mass density, 313.15 K [kg/m3]	viscosity, 298.15 K [mPa·s]	viscosity, 303.15 K [mPa·s]	viscosity, 313.15 K [mPa·s]
x1 = 0.0988	775.01 ± 1.8	770.65 ± 1.9	761.89 ± 1.9	0.716 ± 0.02	0.676 ± 0.019	0.582 ± 0.017
x1 = 0.1972	785.84 ± 1.7	781.44 ± 1.7	772.64 ± 1.8	0.751 ± 0.02	0.698 ± 0.019	0.604 ± 0.017
x1 = 0.297	797.52 ± 1.6	793.12 ± 1.6	784.26 ± 1.6	0.801 ± 0.021	0.73 ± 0.02	0.634 ± 0.018
x1 = 0.3964	811.57 ± 1.5	805.63 ± 1.5	796.74 ± 1.5	0.867 ± 0.023	0.776 ± 0.021	0.674 ± 0.018
x1 = 0.4953	822.93 ± 1.4	818.51 ± 1.4	809.59 ± 1.4	0.945 ± 0.025	0.84 ± 0.022	0.725 ± 0.019
x1 = 0.5948	836.59 ± 1.3	832.17 ± 1.3	823.26 ± 1.3	1.057 ± 0.027	0.918 ± 0.024	0.791 ± 0.021
x1 = 0.6952	850.68 ± 1.1	846.26 ± 1.2	837.34 ± 1.2	1.19 ± 0.03	1.022 ± 0.026	0.868 ± 0.022
x1 = 0.7969	865.9 ± 1.1	861.49 ± 1.1	852.58 ± 1.1	1.362 ± 0.034	1.164 ± 0.029	0.97 ± 0.024
x1 = 0.8977	881.36 ± 0.95	876.96 ± 0.97	868.08 ± 1	1.585 ± 0.039	1.326 ± 0.032	1.087 ± 0.027
x1 = 1	899.28 ± 0.85	894.9 ± 0.87	886.07 ± 0.91	1.856 ± 0.045	1.544 ± 0.037	1.25 ± 0.031

CC1CCCCC1 [methylcyclohexane] + CN1CCNCC1
[2], x2 = 0
Conditions	mass density [kg/m3]	viscosity [mPa·s]
298.15 K	765 ± 1.9	0.719 ± 0.02
303.15 K	760.67 ± 2	0.655 ± 0.019
313.15 K	751.94 ± 2	0.573 ± 0.017

CC1CCCCC1 [methylcyclohexane]
[1]
Conditions	mass density [kg/m3]	viscosity [mPa·s]
298.15 K	765 ± 1.9	0.719 ± 0.02
303.15 K	760.67 ± 2	0.655 ± 0.019
313.15 K	751.94 ± 2	0.573 ± 0.017

CCCCCCC [heptane] + CN1CCNCC1
[2], x2 = 0
Conditions	mass density [kg/m3]	viscosity [mPa·s]
298.15 K	679.72 ± 0.72	0.404 ± 0.012
303.15 K	675.46 ± 0.72	0.383 ± 0.012
313.15 K	666.84 ± 0.73	0.342 ± 0.011
